In data set [1] the test system is Parkinson's disease psychosis (PDP) patients. The data set is described as follows: Phase III six-week randomized double-blind placebo-controlled study in PDP patients. It is filed as in vivo, human. Here is the method:
A six-week, multi-center, randomized, double-blind, placebo-controlled study was conducted in PDP patients. The purpose of the study was to evaluate the safety and efficacy of 40 mg pimavanserin compared to placebo in the treatment of PDP.
A total of 199 patients were enrolled in the study and randomized on a one-to-one basis to receive either 40 mg of pimavanserin or placebo once daily for six weeks, following a two-week screening period including brief psycho-social therapy. Patients also received stable doses of their existing anti-Parkinson's therapy throughout the study.
At the screening visit, a trained member of the site staff worked with the patient's caregiver to devise a structured plan of social interaction for the patient and caregiver to follow at home. This brief non-pharmacologic psychosocial counseling was intended to help the patient and caregiver to manage the symptoms and provide standard of care prior to the blinded investigational treatment phase. Following the screening visit, patients received two follow-up phone calls (˜3- and 7-days from the screening visit) to review the plan and evaluate progress. Only those patients who met entry criteria at baseline were randomized to receive 40 mg pimavanserin or matching placebo for the 6-week treatment period.
The maximum duration of the study for each subject was approximately 12 weeks. Pimavanserin was administered in tablet form, once daily by mouth in 40 mg doses (2 tablets of 20 mg). Placebo was administered with visibly matching tablets, using the same route and regimen. The safety of subjects was assessed by monitoring adverse events, physical examinations, vital signs, clinical laboratory tests (hematology, clinical chemistry, and urinalysis), and electrocardiograms.
Primary Clinical Endpoint: The combined score for the modified 9-item hallucinations and delusions domains of the Scale for the Assessment of Positive Symptoms (SAPS-PD).
Key Secondary Endpoint: Parts II-III of the Unified Parkinson's Disease Rating Scale (UPDRS), which measures motor function.
Other Secondary Endpoints: Changes in the Clinical Global Impression Scale (CGI) with emphasis on severity (CGI-S) and improvement (CGI-I) of psychosis.
Exploratory Endpoints: the Caregiver Burden Scale, and Scales for Outcomes in Parkinson's Disease-Sleep scale (SCOPA-Sleep).
Note: mixed model repeated measures (MMRM) method was applied in primary analysis of the intent-to-treat (ITT) population. The significance test was based on least-square mean change from baseline for each arm using a 2-sided […]=0.05.

Data set [2] deals with DOI ((±)-2,5-dimethoxy-4-iodoamphetamine, a serotonin agonist) induced head twitches. The note with it: rat; oral doses of 3 and 10 mg/kg; cited from earlier work.
For data set [3], the system named is hyperactivity induced by the N-methyl-D-aspartate antagonist MK-801. The note with it: mice; oral doses of 3 and 10 mg/kg; cited from earlier work.
The test system of data set [4] is gating deficit induced by DOI. The note with it: rat; doses of 1 and 3 mg/kg SC; cited from earlier work.
Data set [5] concerns learning of a simple auto-shaped response. As to conditions: mice; intraperitoneal doses up to 32 mg/kg; cited from earlier work.

Consider `CC(C)COc1ccc(CNC(=O)N(Cc2ccc(F)cc2)C2CCN(C)CC2)cc1` [Pimavanserin, N-(1-methylpiperidin-4-yl)-N-(4-fluorophenylmethyl)-N′-(4-(2-methylpropyloxy)phenylmethyl)carbamide], for which, in data set [1] (40 mg once daily oral, 6 weeks), the “safety and tolerability in the trial” value was “safe and well tolerated”. For the same compound, the “SAPS-PD Mean Change at Day 43” value in data set [1] (40 mg once daily oral, 6 weeks, n = 95, ITT, MMRM least-square mean change from baseline, P-value 0.001 vs placebo) is −5.79. Also, the “serious adverse event: urinary tract infection (number of patients)” value in data set [1] (40 mg once daily oral, 6 weeks, placebo 1) was determined as 3. Also, the “adverse event incidence: falls” value in data set [1] (40 mg once daily oral, 6 weeks, placebo 8.5%) is on record as 10.6%. The “adverse event incidence: urinary tract infection” value in data set [1] (40 mg once daily oral, 6 weeks, placebo 11.7%) is on record as 13.5%. Moreover, the “serious adverse event: psychotic disorder (number of patients)” value in data set [1] (40 mg once daily oral, 6 weeks, placebo zero) came out at 2. Further, the “CGI-I scale (secondary efficacy measure)” value in data set [1] (40 mg once daily oral, 6 weeks, versus placebo, p=0.001) was “highly significant improvement”. In data set [1] (40 mg once daily oral, 6 weeks, versus placebo, p=0.002), the “Caregiver Burden Scale” value is given as “highly significant improvement”. Moreover, in data set [1] (40 mg once daily oral, 6 weeks, versus placebo, p=0.012), the “daytime wakefulness on SCOPA-sleep scale” value was “significant improvements”. For the same compound, the “nighttime sleep on SCOPA-sleep scale” value in data set [1] (40 mg once daily oral, 6 weeks, versus placebo, p=0.045) was “significant improvements”. For the same compound, in data set [1] (40 mg once daily oral, day 43, blinded independent centralized raters), the “improvement in psychosis at day 43 on SAPS-PD” value is 5.79 point. In addition, the “treatment difference on SAPS-PD versus placebo” value in data set [1] (40 mg once daily oral, day 43, p=0.001) was found to be 3.06 points. Besides, the “change in combined UPDRS II & III scores” value in data set [1] (40 mg once daily oral, mean change from baseline to day 43) is recorded as −1.40. In data set [1] (two-sided 95 percent CI of treatment difference, pre-specified margin of 5 points, day 43), the “motor function (UPDRS Parts II-III, non-inferiority versus placebo)” value is on record as “did not worsen motor function”. Besides, in data set [2], the “activity in DOI induced head twitches” value was “effective”. In data set [3], the “attenuation of MK-801 induced hyperactivity” value is reported as “effective”. Also, in data set [4], the “reversal of DOI induced sensory motor gating deficit” value was “potently reversed the gating deficit”. In addition, the “disruption of learning of a simple auto-shaped response” value in data set [5] is “failed to disrupt learning”.

(Values after patent US9446037B2, “Methods for the treatment of parkinson's disease psychosis using pimavanserin” (ACADIA Pharmaceuticals Inc., priority 2012, dated 2016).)
